Test results reported in patent US10875876B2, “Cyclized sulfamoylarylamide derivatives and the use thereof as medicaments for the treatment of hepatitis B” (priority 2015, dated 2020).
Where two headings read alike, the source gives them in different places.

Assays:
[1] = Cytotoxicity in HepG2 cells, Resazurin assay; settings: human, HepG2 cells, TOX-HepG2-4 d CC50 (μM), HepG2 cells incubated for 4 days, viability by Resazurin assay
HBV = assay: anti HBV activity, HepG2.117 cell line, intracellular HBV DNA by realtime PCR; format: cell-based; settings: HepG2.117 cell line (Tet-off), 3 days of treatment, intracellular HBV DNA quantified by realtime PCR, read-out: HBV-AVE-HepG2.117 EC50
Description: The anti HBV activity was measured using the HepG2.117 cell line, a stable, inducibly HBV producing cell line, which replicates HBV in the absence of doxicycline (Tet-off system). For the antiviral assay, HBV replication was induced, followed by a treatment with serially diluted compound in 96-well plates in duplicate. After 3 days of treatment, the antiviral activity was determined by quantification of intracellular HBV DNA using realtime PCR and an HBV specific primer set and probe.

[2] = Hepatitis B virus, HepG2.117, 72 h

Compound | CC50 at 4 days [1] [µM] | EC50 (HBV; [2]) [nM] | EC50 (HBV) [nM]
C[C@H](O)[C@H]1C=Cc2c(cn(C)c2C(=O)Nc2ccnc(Br)c2)S(=O)(=O)N1 [Compound 97, (3R)—N-(2-bromo-4-pyridyl)-3-[(1S)-1-hydroxyethyl]-7-methyl-1,1-dioxo-2,3-dihydropyrrolo[3,4-f]thiazepine-6-carboxamide] | > 25 | 55 | –
Cn1cc2c(c1C(=O)Nc1ccc(F)c(F)c1)OC[C@H](C(C)(C)O)NS2(=O)=O [Compound 93, (3R)—N-(3,4-difluorophenyl)-3-(1-hydroxy-1-methyl-ethyl)-7-methyl-1,1-dioxo-3,4-dihydro-2H-pyrrolo[3,4-b][1,4,5]oxathiazepine-6-carboxamide] | > 25 | 12 | –
Cc1cc(CC2(C)COc3c(cn(C)c3C(=O)Nc3ccc(F)c(C(F)F)c3)S(=O)(=O)N2)n(C)n1 (single isomer, unassigned) [Compound 176a, N-[3-(difluoromethyl)-4-fluoro-phenyl]-3-[(2,5-dimethylpyrazol-3-yl)methyl]-3,7-dimethyl-1,1-dioxo-2,4-dihydropyrrolo[3,4-b][1,4,5]oxathiazepine-6-carboxamide] | > 25 | 12 | –
CC(C)[C@@H]1COc2c(ccc(F)c2C(=O)Nc2ccc(F)c(C#N)c2)S(=O)(=O)N1 [Compound 49, (3R)—N-(3-cyano-4-fluoro-phenyl)-7-fluoro-3-isopropyl-1,1-dioxo-3,4-dihydro-2H-5,1λ^6,2-benzoxathiazepine-6-carboxamide] | > 25 | 310 | –
CC(NCC(F)(F)F)C1CCc2c(cn(C)c2C(=O)Nc2cc(F)c(F)c(F)c2)S(=O)(=O)N1 (single isomer, unassigned) [Compound 218c, 7-methyl-1,1-dioxo-3-[1-(2,2,2-trifluoroethylamino)ethyl]-N-(3,4,5-trifluorophenyl)-2,3,4,5-tetrahydropyrrolo[3,4-f]thiazepine-6-carboxamide] | > 25 | – | 6
Cn1cc2c(c1C(=O)Nc1ccc(F)c(F)c1)OCC(CO)NS2(=O)=O (centres unmarked) [Compound 83, N-(3,4-difluorophenyl)-3-(hydroxymethyl)-7-methyl-1,1-dioxo-3,4-dihydro-2H-pyrrolo[3,4-b][1,4,5]oxathiazepine-6-carboxamide] | > 25 | 58 | –
Cn1cc2c(c1C(=O)Nc1cc(F)c(F)c(F)c1)OC[C@H](C(C)(C)O)NS2(=O)=O [Compound 147, (3R)-3-(1-hydroxy-1-methyl-ethyl)-7-methyl-1,1-dioxo-N-(3,4,5-trifluorophenyl)-3,4-dihydro-2H-pyrrolo[3,4-b][1,4,5]oxathiazepine-6-carboxamide] | > 25 | 13 | –
Cn1cc2c(c1C(=O)Nc1ccc(F)c(F)c1)OC[C@H](C(O)C1CC1)NS2(=O)=O (stereo partly drawn) [Compound 105a, (3R)-3-[cyclopropyl(hydroxy)methyl]-N-(3,4-difluorophenyl)-7-methyl-1,1-dioxo-3,4-dihydro-2H-pyrrolo[3,4-b][1,4,5]oxathiazepine-6-carboxamide] | > 25 | 7 | –
Cn1cc2c(c1C(=O)Nc1ccc(F)c(F)c1)CCC(CO)(CO)NS2(=O)=O [Compound 201, N-(3,4-difluorophenyl)-3,3-bis(hydroxymethyl)-7-methyl-1,1-dioxo-4,5-dihydro-2H-pyrrolo[3,4-f]thiazepine-6-carboxamide] | > 25 | 110 | –
Cn1cc2c(c1C(=O)Nc1ccc(F)c(F)c1)OC[C@@](C)(Cc1ccccc1)NS2(=O)=O [Compound 154, (3R)-3-benzyl-N-(3,4-difluorophenyl)-3,7-dimethyl-1,1-dioxo-2,4-dihydropyrrolo[3,4-b][1,4,5]oxathiazepine-6-carboxamide] | > 25 | 8 | –
Cc1cc(NC(=O)c2c3c(cn2C)S(=O)(=O)N[C@@H](Cc2cccnc2)CO3)ccc1F [Compound 74, (3S)—N-(4-fluoro-3-methyl-phenyl)-7-methyl-1,1-dioxo-3-(3-pyridylmethyl)-3,4-dihydro-2H-pyrrolo[3,4-b][1,4,5]oxathiazepine-6-carboxamide] | > 25 | 52 | –
Cn1cc2c(c1C(=O)Nc1ccc(F)c(C(F)F)c1)CCC1(COC1)NS2(=O)=O [Compound 137, N-[3-(difluoromethyl)-4-fluoro-phenyl]-7-methyl-1,1-dioxo-spiro[4,5-dihydro-2H-pyrrolo[3,4-f]thiazepine-3,3′-oxetane]-6-carboxamide] | > 25 | 6 | –
CC1C=Cc2c(cn(C)c2C(=O)Nc2cc(F)c(F)c(F)c2)S(=O)(=O)N1 (single isomer, unassigned) [Compound 29, (*S)-3,7-dimethyl-1,1-dioxo-N-(3,4,5-trifluorophenyl)-2,3-dihydropyrrolo[3,4-f]thiazepine-6-carboxamide] | > 25 | 5 | –
Cc1cc(CC2(C)COc3c(cn(C)c3C(=O)Nc3ccnc(C(F)F)c3)S(=O)(=O)N2)no1 (single isomer, unassigned) [Compound 209a, N-[2-(difluoromethyl)-4-pyridyl]-3,7-dimethyl-3-[(5-methylisoxazol-3-yl)methyl]-1,1-dioxo-2,4-dihydropyrrolo[3,4-b][1,4,5]oxathiazepine-6-carboxamide] | > 25 | – | 60
Cn1cc2c(c1C(=O)Nc1ccc(F)c(C(F)F)c1)OC[C@H](C(C)(C)O)NS2(=O)=O [Compound 100, (3R)—N-[3-(difluoromethyl)-4-fluoro-phenyl]-3-(1-hydroxy-1-methyl-ethyl)-7-methyl-1,1-dioxo-3,4-dihydro-2H-pyrrolo[3,4-b][1,4,5]oxathiazepine-6-carboxamide] | > 25 | 3 | –
Cn1cc2c(c1C(=O)Nc1ccc(F)c(F)c1)OC[C@@H](C(F)(F)F)NS2(=O)=O [Compound 61, (3S)—N-(3,4-difluorophenyl)-7-methyl-1,1-dioxo-3-(trifluoromethyl)-3,4-dihydro-2H-pyrrolo[3,4-b][1,4,5]oxathiazepine-6-carboxamide] | > 25 | 74 | –
Cn1cc2c(c1C(=O)Nc1ccc(F)c(F)c1)OCC(C)(Cc1ccc(Cl)nc1)NS2(=O)=O (centres unmarked) [Compound 197, 3-[(6-chloro-3-pyridyl)methyl]-N-(3,4-difluorophenyl)-3,7-dimethyl-1,1-dioxo-2,4-dihydropyrrolo[3,4-b][1,4,5]oxathiazepine-6-carboxamide] | > 25 | 11 | –
Cc1cc(CC2(C)COc3c(cn(C)c3C(=O)Nc3ccnc(Cl)c3)S(=O)(=O)N2)no1 (single isomer, unassigned) [Compound 213a, N-(2-chloro-4-pyridyl)-3,7-dimethyl-3-[(5-methylisoxazol-3-yl)methyl]-1,1-dioxo-2,4-dihydropyrrolo[3,4-b][1,4,5]oxathiazepine-6-carboxamide] | > 25 | – | 48
CC(C)C1C=Cc2c(cn(C)c2C(=O)Nc2ccc(F)c(F)c2)S(=O)(=O)N1 (single isomer, unassigned) [Compound 79a, N-(3,4-difluorophenyl)-3-isopropyl-7-methyl-1,1-dioxo-2,3-dihydropyrrolo[3,4-f]thiazepine-6-carboxamide] | > 25 | – | 43
Cn1cc2c(c1C(=O)Nc1ccc(F)c(C#N)c1)CCC(C(C)(F)F)NS2(=O)=O (centres unmarked) [Compound 118, N-(3-cyano-4-fluoro-phenyl)-3-(1,1-difluoroethyl)-7-methyl-1,1-dioxo-2,3,4,5-tetrahydropyrrolo[3,4-f]thiazepine-6-carboxamide] | > 25 | 13 | –
C[C@H](O)[C@H]1CCc2c(cn(C)c2C(=O)Nc2ccc(F)c(F)c2)S(=O)(=O)N1 [Compound 88, (3R)—N-(3,4-difluorophenyl)-3-[(1S)-1-hydroxyethyl]-7-methyl-1,1-dioxo-2,3,4,5-tetrahydropyrrolo[3,4-f]thiazepine-6-carboxamide] | > 25 | 11 | –
CC(C)[C@H]1COc2c(cn(C)c2C(=O)Nc2ccc(F)c(F)c2)S(=O)(=O)N1 [Compound 22, (3S)—N-(3,4-difluorophenyl)-3-isopropyl-7-methyl-1,1-dioxo-3,4-dihydro-2H-pyrrolo[3,4-b][1,4,5]oxathiazepine-6-carboxamide] | > 25 | 9 | –
C[C@@H](O)[C@H]1CCc2c(cn(C)c2C(=O)Nc2ccc(F)c(F)c2)S(=O)(=O)N1 [Compound 70, (3R)—N-(3,4-difluorophenyl)-3-[(1R)-1-hydroxyethyl]-7-methyl-1,1-dioxo-2,3,4,5-tetrahydropyrrolo[3,4-f]thiazepine-6-carboxamide] | > 25 | 14 | –
Cn1cc2c(c1C(=O)Nc1ccc(F)c(F)c1)OCC(C)(c1ncco1)NS2(=O)=O (racemic) [Compound 160, N-(3,4-difluorophenyl)-3,7-dimethyl-3-oxazol-2-yl-1,1-dioxo-2,4-dihydropyrrolo[3,4-b][1,4,5]oxathiazepine-6-carboxamide] | > 25 | 14.5 | –
Cn1cc2c(c1C(=O)Nc1ccc(F)c(F)c1)OC[C@](C)(Cc1ccccc1)NS2(=O)=O [Compound 155, (3S)-3-benzyl-N-(3,4-difluorophenyl)-3,7-dimethyl-1,1-dioxo-2,4-dihydropyrrolo[3,4-b][1,4,5]oxathiazepine-6-carboxamide] | > 25 | 25 | –
